# Source: patent EP0449699A2, “Pyrazole derivatives as angiotensin II-receptor antagonists, process for their preparation and pharmaceutical compositions containing them” (LABORATOIRES UPSA, priority 1990, dated 1991)
# Test system: récepteurs surrénaliens de l'angiotensine II
# Assay: Displacement of radioligand [125I]-SIAII specifically bound to adrenal angiotensin II receptors (rat adrenal homogenate)
# Assay type: binding
# Conditions: 60 min, 25°C
# From the text: L'affinité des produits des exemples pour les récepteurs de l'angiotensine II est évaluée par technique de déplacement d'un radioligand spécifiquement fixé sur les récepteurs surrénaliens de l'angiotensine Il, chez le rat.
# Une aliquote d'un homogénat de surrénales de rat incube en présence d'une concentration unique de [^125I]-SIAII (Sar^1, Tyr^4, Ile^8 - angiotensine II), antagoniste des récepteurs de l'angiotensine II, et de deux concentrations d'agents compétiteurs (10^-5 M, 10-^7 M) durant 60 min à 25°C.
# La réaction est achevée par ajout de tampon, puis rapide filtration à travers des filtres de papier de verre. La liaison non spécifique est déterminée en présence d'angiotensine Il.
# Les résultats sont exprimés, pour les concentrations testées, en pourcentage de déplacement du radioligand spécifiquement fixé sur les récepteurs surrénaliens de l'angiotensine Il.
Compound,"% de déplacement du ligand marqué (competitor 1E-5 M, 10 µM) [%]","% de déplacement du ligand marqué (competitor 1E-7 M, 0.1 µM) [%]"
"CCCCc1nn(C)c(OCC(=O)OCC)c1Cc1ccc(-c2ccccc2-c2nn[nH]n2)cc1 [Exemple 90, [Méthyl-1 n-Butyl-3 [(tétrazolyl-5)-2'blphényl-yl-4]méthyl-4 pyrazol-yl-5] oxy acétate d'éthyle]",64,40
"CCCc1nn(C)c(O)c1Cc1ccc(-c2ccccc2-c2nnn[nH]2)cc1 [Exemple 71, Méthyl-1 n-Propyl-3 hydroxy-5 [(tétrazolyl-5)-2' biphényl-yl-4] méthyl-4 pyrazole]",58,24
"CCCc1nn(C)c(OCC(=O)OCC)c1Cc1ccc(NC(=O)c2ccccc2C(=O)O)cc1 [Exemple 29, [Méthyl-1 n-propyl-3 ((carboxy-2 benzoyl amino)-4 benzyl)-4 pyrazol-yl-5] oxyacétate d'éthyle]",80,40
"CCCc1nn(C)c(OCC(=O)OC)c1Cc1ccc(-c2ccccc2NS(=O)(=O)C(F)(F)F)cc1 [Exemple 135, [Méthyl-1 n-Propyl-3 (trifluoro méthyl sulfonyl amlmo-2'blphényl-yl-4)méthyl-4 pyrazol-yl-5] oxy acétatede méthyle]",65,34
"CCCc1nn(CC(F)(F)F)c(OCCO)c1Cc1ccc(NC(=O)c2ccccc2S(=O)(=O)O)cc1 [Exemple 63, Acide [[(trffiuoro-2,2,2 éthyl)-1 n-Propyl-3 (hydroxy-2 éthoxy)-5 pyrazol-yl-4]méthyl-4 phényl-yl-4] amino carbonyl-2 benzène sulfonique]",91,64
"CCCCc1nn(C)c(O)c1Cc1ccc(-c2ccccc2C(=O)O)cc1 [Exemple 36, Acide [Méthyl-1 n-butyl-3 hydroxy-5 pyrazol-yl-4] méthyl-4' biphényl-2 carboxylique]",62,10
"CCCCc1nn(C)c(OCC(=O)N2CCOCC2)c1Cc1ccc(NC(=O)c2ccccc2NS(=O)(=O)C(F)(F)F)cc1 [Exemple 130, N-[[Méthyl-1 n-Butyl-3 [(trifluoro méthyl sulfonyl amino-2 benzoyl)amino-4 benryl]-4 pyrazol-yl-5]oxyacétyl] morpholine]",74,33
"CCCc1nn(CC(F)(F)F)c(OCCO)c1Cc1ccc(-c2ccccc2-c2nn[nH]n2)cc1 [Exemple 92, [(trifluoro-2,2,2 éthyl)-1 n-Propyl-3 [(tétrazolyl-5)-2'biphényl-yl-4]méthyl-4 pyrazol-yl-5] oxy-2 éthanol]",75,70
"CCCc1nn(CC(F)(F)F)c(OCC(=O)OCC)c1Cc1ccc(-c2ccccc2-c2nn[nH]n2)cc1 [Exemple 84, ((Trifluoro-2,2,2 éthyl)-1 n-Propyl-3 [(tétrazolyl-5)-2' biphényl-yl-4]méthyl-4 pyrazol-yl-5] oxy acétate d'éthyle]",65,51
"CCCc1nn(C)c(OCC(=O)OCC)c1Cc1ccc(-c2ccccc2-c2nnn[nH]2)cc1 [Exemple 70, [Méthyl-1 n-Propyl-3 [(tétrazolyl-5)-2' biphényl-yl-4]méthyl-4 pyrazol-yl-5] oxy acétate d'éthyle]",67,49
"CCCCc1nn(C)c(OC(=O)N(C)C)c1Cc1ccc(-c2ccccc2-c2nn[nH]n2)cc1 [Exemple 82, Méthyl-1 n-Butyl-3 [(tétrazolyl-5)-2' biphényl-yl-4] méthyl-4 (N,N-diméthyl carbamoyl) oxy-5 pyrazole]",71,47
"CCCc1nn(C)c(OCC(=O)OCC)c1Cc1ccc(NC(=O)c2c(Cl)ccc(Cl)c2C(=O)O)cc1 [Exemple 30, [Méthyl-1 n-propyl-3 ((carboxy-2 dichloro-3,6-benzoyl amino)-4 benzyl)-4 pyrazol-yl-5] oxyacétate d'éthyle]",96,63
"CCCc1n[nH]c(COC)c1Cc1ccc(NC(=O)c2ccccc2S(=O)(=O)O)cc1 [Exemple 108, Acide [(n-propyl-3 méthoxy méthyl-5 pyrazol-yl-4)méthylphényl-yl-4] amino carbonyl-2 benzène sulfonique]",86,19
"CCCc1nn(C)c(OCCO)c1Cc1ccc(-c2ccccc2-c2nn[nH]n2)cc1 [Exemple 88, [Méthyl-1 n-Propyl-3 [(tétrazolyl-5)-2'biphényl-yl-4]méthyl-4 pyrazol-yl-5]oxy-2 éthanol]",60,38
"CCCCc1nn(CC(F)(F)F)c(COC)c1Cc1ccc(-c2ccccc2-c2nnn[nH]2)cc1 [Exemple 119, (Trifluoro-2,2,2 éthyl)-1 n-butyl-3 [(tétrazolyl-5)-2' biphényl-yl-4] méthyl-4 méthoxy méthyl-5 pyrazole]",70,54
"CCCCc1nn(C)c(OCC(=O)OCC)c1Cc1ccc(NC(=O)c2ccccc2C(=O)O)cc1 [Exemple 27, [Méthyl-1 n-butyl-3 ((carboxy-2 benzoyl amino)-4 benzyl)-4 pyrazol-yl-5] oxyacétate d'éthyle]",92,39
"CCCc1nn(C)c(OC(=O)N(CC)CC)c1Cc1ccc(NC(=O)c2ccccc2S(=O)(=O)O)cc1 [Exemple 57, Acide [[Méthyl-1 n-Propyl-3 (N,N-diéthyl carbamoyl)oxy-5 pyrazol-yl-4]méthylphényl-yl-4] amino carbonyl-2 benzène sulfonique]",80,60
"CCCc1nn(CC(F)(F)F)c(OCC(=O)OC)c1Cc1ccc(NC(=O)c2ccccc2C(=O)O)cc1 [Exemple 33, [(trifluoro-2,2,2 éthyl)-1 n-propyl-3 ((carboxy-2 benzoyl amino)-4 benzyl)-4 pyrazol-yl-5] oxyacétatede méthyle]",94,26
"CCCc1nn(C)c(OC(=O)N(C)C)c1Cc1ccc(-c2ccccc2-c2nn[nH]n2)cc1 [Exemple 86, Méthyl-1 n-Propyl-3 [(tétrazolyl-5)-2' biphényl-yl-4] méthyl-4 (N,N-diméthyl carbamoyl) oxy-5 pyrazole]",58,41
"CCCc1nn(CC(=O)OCC)c(OCC(=O)OCC)c1Cc1ccc(NC(=O)c2c(Cl)ccc(Cl)c2C(=O)O)cc1 [Exemple 44, Acide [[(Ethoxy carbonyl méthyl)-1 n-propyl-3 (Ethoxy carbonyl méthyloxy)-5 pyrazol-yl-4]méthylphényl-yl-4] amino carbonyl-2 dlchloro-3,6-benzoïque]",96,9
"CCCc1nn(C)c(COC)c1Cc1ccc(NC(=O)c2ccccc2S(=O)(=O)O)cc1 [Exemple 107, Acide [(Méthyl-1 n-propyl-3 méthoxy méthyl-5 pyrazol-yl-4)méthylphényl-yl-4] amino carbonyl-2 benzène sulfonlque]",83,62
"CCCc1nn(C)c(OC(=O)N(C)C)c1Cc1ccc(NC(=O)c2ccccc2S(=O)(=O)O)cc1 [Exemple 54, Acide [[Méthyl-1 n-propyl-3 (N,N-diméthyl carbamoyl)oxy-5 pyrazol-yl-4]méthylphényl-yl-4] aminocarbonyl-2 benzène sulfonique]",77,62
"CCCc1nn(CC(F)(F)F)c(OCC(=O)OC)c1Cc1ccc(NC(=O)c2c(Cl)ccc(Cl)c2C(=O)O)cc1 [Exemple 32, [(trifluoro-2,2,2 éthyl)-1 n-propyl-3 ((carboxy-2 dichloro-3,6-benzoyl amino)-4 benzyl)-4 pyrazol-yl-5] oxyacétatede méthyle]",98,52
